Results on 1 compound are retold here after ChEMBL document CHEMBL5360655, “Design, Synthesis, and Biological Evaluation of Novel P2X7 Receptor Antagonists for the Treatment of Septic Acute Kidney Injury” (J Med Chem, 2023).

Data set [1] is described as follows: Tmax in BALB/c mouse at 10 mg/kg, ip measured for 24 hrs by LC-MS/MS analysis. In kind it is ADME, organism-based. The following applies: in vivo.
Data set [2] can be described thus: Toxicity in ip dosed C57BL/6J mouse assessed as maximum tolerated dose and measured for 14 days. In kind it is organism-based. The following applies: in vivo, time 14 day.
A further data set concerns the target T1, Cytochrome P450 1A2 (Homo sapiens, UniProt P05177).
T1 sequence (P05177 whole entry): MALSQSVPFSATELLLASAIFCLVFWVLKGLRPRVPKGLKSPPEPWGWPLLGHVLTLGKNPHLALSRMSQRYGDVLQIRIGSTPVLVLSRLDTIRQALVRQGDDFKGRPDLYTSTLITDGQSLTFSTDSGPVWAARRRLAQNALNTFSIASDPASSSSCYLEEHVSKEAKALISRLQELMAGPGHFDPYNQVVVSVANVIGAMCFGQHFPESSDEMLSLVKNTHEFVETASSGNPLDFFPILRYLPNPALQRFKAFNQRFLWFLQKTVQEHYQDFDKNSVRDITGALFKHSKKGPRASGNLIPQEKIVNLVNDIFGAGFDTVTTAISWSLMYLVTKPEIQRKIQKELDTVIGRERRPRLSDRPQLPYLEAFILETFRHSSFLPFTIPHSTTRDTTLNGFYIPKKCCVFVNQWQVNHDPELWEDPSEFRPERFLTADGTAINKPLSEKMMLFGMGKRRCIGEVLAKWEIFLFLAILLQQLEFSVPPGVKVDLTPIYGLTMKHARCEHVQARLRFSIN
The experiment in a line: Inhibition of CYP1A2 in human liver microsomes using phenacetin as substrate upto 100 uM incubated for 10 mins in presence of NADPH by LC-MS/MS analysis. The data set is classed as ADME, Microsome. (In general: Liver microsomes are vesicles of endoplasmic reticulum, rich in cytochrome P450 enzymes.)

The target in data set [3] is T2, P2X purinoceptor 7 (Homo sapiens) (UniProt Q99572).
T2 sequence (whole entry): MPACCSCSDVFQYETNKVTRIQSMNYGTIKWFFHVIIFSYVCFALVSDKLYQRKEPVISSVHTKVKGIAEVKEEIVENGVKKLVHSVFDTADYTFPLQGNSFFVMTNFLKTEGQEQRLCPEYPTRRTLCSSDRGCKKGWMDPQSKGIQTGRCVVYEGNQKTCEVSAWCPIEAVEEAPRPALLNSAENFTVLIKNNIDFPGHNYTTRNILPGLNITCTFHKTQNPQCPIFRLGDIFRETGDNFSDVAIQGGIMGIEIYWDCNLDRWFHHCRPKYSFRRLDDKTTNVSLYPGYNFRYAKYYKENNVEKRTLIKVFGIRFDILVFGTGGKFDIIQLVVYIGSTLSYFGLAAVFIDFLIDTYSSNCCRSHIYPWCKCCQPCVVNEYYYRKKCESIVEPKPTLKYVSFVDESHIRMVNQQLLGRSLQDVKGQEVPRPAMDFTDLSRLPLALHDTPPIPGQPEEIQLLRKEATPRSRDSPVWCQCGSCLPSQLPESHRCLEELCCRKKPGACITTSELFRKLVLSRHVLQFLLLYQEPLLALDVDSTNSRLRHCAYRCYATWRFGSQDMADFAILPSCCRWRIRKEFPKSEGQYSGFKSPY
The experiment in a line: Antagonist activity at human P2X7 receptor expressed in HEK293 cells assessed as inhibition of ATP-induced receptor pore formation at 1 uM by propidium iodide dye uptake based fluorescence analysis. In kind it is cell-based. The settings on record: filed as antagonist.

The test system of data set [4] is Mus musculus. The data set is described as follows: Reno-protective activity against CLP-induced acute kidney injury C57BL/6J mouse model assessed as decrease in serum […] level at 20 mg/kg, ip administered twice at 30 mins prior to CLP operation and 8 hrs post-CLP operation and measured at 16 hrs post-CLP operation. The data set is classed as functional, organism-based. The following applies: time 16.5 hrs.

Data set [5] has as its target T2, P2X purinoceptor 7 (Homo sapiens). The experiment in a line: Antagonist activity at human P2X7 receptor expressed in HEK293 cells assessed as inhibition of ATP-induced receptor pore formation at 200 nM by propidium iodide dye uptake based fluorescence analysis. In kind it is cell-based. The following applies: filed as antagonist.
For data set [6], the target named is T3, P2X purinoceptor 7 (Homo sapiens, UniProt Q99572).
T3 sequence (Q99572 whole entry): T2 sequence (whole entry)
The data set is described as follows: Antagonist activity at human P2X7 receptor expressed in HEK293 cells assessed as inhibition of ATP-induced receptor pore formation by propidium iodide dye uptake based fluorescence analysis. In kind it is cell-based.

Data set [7] can be described thus: Ratio of MTD in ip dosed C57BL/6J mouse to MED for reno-protective activity against ip dosed LPS-induced acute kidney injury C57BL/6J mouse model. In kind it is ADME, organism-based. The settings on record: in vivo.
In another data set the test system is THP-1. The experiment in a line: Inhibition of ATP-induced apoptosis in human THP-1 cells at 0.5 to […] pretreated with LPS for 3 hrs followed by incubation with compound for 40 mins followed by treatment with ATP for 6 hrs by CCK8 assay. The following applies: dose 0.5-2.5 µM, time 400.0 min. In kind it is functional, cell-based.
Data set [8] addresses T4, P2X purinoceptor 7 (Mus musculus, UniProt Q9Z1M0).
T4 sequence (Q9Z1M0 whole entry): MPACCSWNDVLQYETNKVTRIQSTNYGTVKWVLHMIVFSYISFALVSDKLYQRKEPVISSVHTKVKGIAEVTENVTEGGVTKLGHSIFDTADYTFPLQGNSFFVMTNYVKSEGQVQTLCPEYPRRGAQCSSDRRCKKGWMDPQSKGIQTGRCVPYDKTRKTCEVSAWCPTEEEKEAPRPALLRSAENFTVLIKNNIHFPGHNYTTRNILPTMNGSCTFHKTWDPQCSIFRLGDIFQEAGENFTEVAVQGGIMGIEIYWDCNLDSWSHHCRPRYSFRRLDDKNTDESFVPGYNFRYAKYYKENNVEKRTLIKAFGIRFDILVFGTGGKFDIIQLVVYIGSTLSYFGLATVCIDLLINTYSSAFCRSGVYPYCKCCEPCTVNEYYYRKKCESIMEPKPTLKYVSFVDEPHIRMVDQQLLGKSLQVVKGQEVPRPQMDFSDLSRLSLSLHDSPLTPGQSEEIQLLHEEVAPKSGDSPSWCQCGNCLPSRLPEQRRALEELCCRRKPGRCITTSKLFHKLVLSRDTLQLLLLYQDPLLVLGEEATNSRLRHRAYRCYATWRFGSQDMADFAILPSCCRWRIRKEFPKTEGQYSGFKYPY
The data set is described as follows: Antagonist activity at mouse P2X7 receptor expressed in HEK293 cells assessed as inhibition of ATP-induced receptor pore formation by propidium iodide dye uptake based fluorescence analysis. The data set is classed as cell-based.

Data set [9] in a line: AUC(0 to t) in BALB/c mouse at 10 mg/kg, po measured for 24 hrs by LC-MS/MS analysis. The following applies: in vivo. The data set is classed as ADME, organism-based. Details: time 24 hrs, dose 10 mg/kg, route po.
Data set [10] is described as follows: Half life in mouse liver microsomes. In kind it is ADME, Microsome.
The subject of data set [11] is Mus musculus. The data set is described as follows: Reno-protective activity against LPS-induced acute kidney injury C57BL/6J mouse model assessed as decrease in serum […] level at 10 mg/kg, ip administered twice at 30 mins prior to LPS challenge and 8 hrs post-LPS challenge and measured at 16 hrs post-LPS challenge. The data set is classed as functional, organism-based. The following applies: time 16.5 hrs.

In data set [12] the target is T2, P2X purinoceptor 7 (Homo sapiens). The experiment in a line: Antagonist activity at P2X7 receptor in human THP-1 cells assessed as inhibition of ATP-induced NLRP3 inflammasome activation at 0.1 to […] pretreated with LPS for 3 hrs followed by incubation with compound for 40 mins followed by treatment with ATP for 1 hr by western blot analysis. The data set is classed as cell-based. The settings on record: filed as antagonist, dose 0.1-2.5 µM, time 100.0 min. In general terms: In western blotting, separated proteins are transferred to a membrane and probed.

In data set [13] the test system is Mus musculus. The experiment in a line: Reno-protective activity against CLP-induced acute kidney injury C57BL/6J mouse model assessed as decrease in IL-1 beta mRNA expression in kidney at 20 mg/kg, ip administered twice at 30 mins prior to CLP operation and 8 hrs post-CLP operation and measured at 16 hrs post-CLP operation by RT-qPCR analysis. The following applies: time 16.5 hrs. The data set is classed as functional, organism-based. For orientation: In qPCR the cycle at which signal appears reflects the starting amount.

pIC50: −log10 of the molar value. The source made the active and inactive calls. Where only a bound is given, the exact number is not on record here.

What is called Tmax is the time at which the peak concentration occurs. Broadly, the MTD is the largest dose that counted as tolerated. The term inhibition denotes the change of the read-out against control, counted positive when it falls. As usually defined, the pIC50 is −log10 of the IC50, conventionally taken in molar units. For orientation: AUC(0-t) means the area under the concentration-time curve up to a stated or last time point. Read a high AUC(0-t) as more exposure. In general, half-life refers to the time needed for the level to fall by half in the phase considered. As to `CS(=O)(=O)c1ccc(-c2nc(C(=O)NCc3cn(-c4cc(Br)ccn4)nn3)cs2)cc1`, the Tmax in data set [1] turned out to be 3 h. The MTD at 336 h in data set [2] was 400 mg/kg. In addition, the “inhibition (INH)” value at Cytochrome P450 1A2 is recorded as “Not Active”. The values for the inhibition in data set [3] and in data set [5] were 112% and 92%, respectively. Also, the outcome in the data set on Mus musculus [4], in the data set on Mus musculus [11] and in the data set with Mus musculus [13] was Active. In addition, the pIC50 on P2X purinoceptor 7 [6] is 7.19; on P2X purinoceptor 7 [8], 8.00. Also, the selectivity ratio in data set [7] was 80. In addition, the inhibition result (in the data set with THP-1; in data set [12]) was “Active” in each case. In data set [9], this compound came in with an AUC(0-t) at 24 h of 6510 ng·h/mL. The half-life in [10] is over 2 h.
